Read-outs that look alike come from different tables or passages of the source.
Legend:
PAMPA permeability assay = type: in vitro ADME; conditions: PAMPA; for recovery at 5 hr, 10 μM: pH 7, PAMPA, donor and acceptor compartments; for Papp at 5 h, 10 μM: pH 7, pH 7, 10 μM
MRC5 cells = assay: Cell viability assay in MRC5 cells (MTT)
PDGFRβ [1] = target: T1, PDGFRβ (Homo sapiens (Human), UniProt P09619); conditions: read-out: Ki PDGFRβ
PDGFRβ [2] = target: T1, PDGFRβ; assay: PDGF-BB induced phosphorylation of PDGFRβ in fibroblasts (MRC5 cells, HTRF); type: cell-based
[3] = mean, n = 2 unless otherwise indicated
[4] = MRC5 cells, n = 1 unless otherwise indicated, read-out: PDGFBB-induced PDGFRβ phosphorylation in MRC5 cells (IC50)

T1 sequence (P09619 33-1106): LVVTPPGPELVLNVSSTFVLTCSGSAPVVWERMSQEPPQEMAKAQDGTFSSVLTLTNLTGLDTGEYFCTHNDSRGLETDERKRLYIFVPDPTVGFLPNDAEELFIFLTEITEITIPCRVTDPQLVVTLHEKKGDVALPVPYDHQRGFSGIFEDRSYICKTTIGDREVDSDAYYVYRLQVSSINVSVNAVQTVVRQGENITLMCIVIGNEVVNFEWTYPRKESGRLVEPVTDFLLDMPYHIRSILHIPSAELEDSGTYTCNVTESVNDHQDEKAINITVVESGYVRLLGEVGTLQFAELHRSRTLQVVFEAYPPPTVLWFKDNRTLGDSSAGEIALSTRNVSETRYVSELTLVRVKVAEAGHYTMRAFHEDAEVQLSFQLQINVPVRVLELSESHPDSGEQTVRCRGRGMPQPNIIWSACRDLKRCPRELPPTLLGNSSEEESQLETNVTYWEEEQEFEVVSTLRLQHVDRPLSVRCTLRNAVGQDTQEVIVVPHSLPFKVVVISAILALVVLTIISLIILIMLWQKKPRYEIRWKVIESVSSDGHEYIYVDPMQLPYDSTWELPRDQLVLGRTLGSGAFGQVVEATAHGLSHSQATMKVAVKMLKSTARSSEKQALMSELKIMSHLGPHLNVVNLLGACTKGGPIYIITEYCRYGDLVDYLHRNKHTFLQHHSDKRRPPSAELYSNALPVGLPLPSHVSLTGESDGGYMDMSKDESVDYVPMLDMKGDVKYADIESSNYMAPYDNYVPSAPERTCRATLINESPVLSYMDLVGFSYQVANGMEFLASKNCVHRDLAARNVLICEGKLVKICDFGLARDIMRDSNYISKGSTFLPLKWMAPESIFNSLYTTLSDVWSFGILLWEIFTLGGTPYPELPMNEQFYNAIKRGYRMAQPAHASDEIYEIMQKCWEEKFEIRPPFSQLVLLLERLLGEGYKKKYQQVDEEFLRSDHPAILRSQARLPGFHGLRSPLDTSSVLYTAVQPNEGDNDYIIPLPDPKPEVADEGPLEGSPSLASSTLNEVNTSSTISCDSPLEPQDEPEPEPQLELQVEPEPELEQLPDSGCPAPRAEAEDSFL

| recovery at 5 hr, 10 μM (PAMPA permeability assay) | Papp at 5 h, 10 μM (PAMPA permeability assay) | Ki (PDGFRβ [1]; [3]) | IC50 (PDGFRβ [2]; [4]) | SMILES | Cell viability at 100 nM (%) (MRC5 cells) | Cell viability at 300 nM (%) (MRC5 cells) | Cell viability at 1000 nM (%) (MRC5 cells) | Ki (PDGFRβ [1]) | IC50 (PDGFRβ [2]) |
| --- | --- | --- | --- | --- | --- | --- | --- | --- | --- |
| 54.1% | 0.0261 ×10⁻⁶ cm/s | 19.2 nM | 39.6 nM | COC(=O)c1cc2c(cc1C)/C(=C(/Nc1ccc(S(=O)(=O)NOCCN3CCN(C)CC3)cc1)c1ccccc1)C(=O)N2 [Example 2, (Z)-Methyl 5-methyl-3-(((4-(N-(2-(4-methylpiperazin-1-yl)ethoxy)sulfamoyl)phenyl)amino)(phenyl)methylene)-2-oxoindoline-6-carboxylate] | 124.5% | 104.4% | 101.2% |  |  |
| 51.5% | 0.424 ×10⁻⁶ cm/s | 11 nM | 3.68 nM | COC(=O)c1ccc2c(c1)NC(=O)/C2=C(\Nc1ccc(C(=O)N(C)OCCN2CCN(C)CC2)c(C)c1)c1ccccc1 [Example 18] | 104.5% | 90.3% | 68.7% |  |  |
| 54.6% | 0.00329 ×10⁻⁶ cm/s | 9.62 nM | 5.95 nM | COC(=O)c1ccc2c(c1)NC(=O)/C2=C(\Nc1ccc(C(=O)NOCCCN(C)C)cc1)c1ccccc1 [Example 19] | 108.3% | 92.7% | 76.9% |  |  |
| 41.5% | 30 ×10⁻⁶ cm/s | 19.8 nM | 19.4 nM | COC(=O)c1ccc2c(c1)NC(=O)/C2=C(\Nc1ccc(S(=O)(=O)N(C)OCCN2CCN(C)CC2)cc1)c1ccccc1 [Example 25] | 108.5% | 104.8% | 79.3% |  |  |
| 61.2% | 0.00146 ×10⁻⁶ cm/s | 4.77 nM | 10.4 nM | COC(=O)c1cc2c(cc1C)/C(=C(/Nc1ccc(C(=O)NOCCCN(C)C)cc1)c1ccccc1)C(=O)N2 [Example 27] | 94.9% | 88.6% | 86.4% |  |  |
| 65.1% | 0.00415 ×10⁻⁶ cm/s | 7.48 nM | 3.18 nM | COC(=O)c1cc2c(cc1C)/C(=C(/Nc1ccc(C(=O)NOCCCN(C)C)c(C)c1)c1ccccc1)C(=O)N2 [Example 29] | 92% | 85.8% | 91.8% |  |  |
| 87% | 0.00225 ×10⁻⁶ cm/s | 7.32 nM | 7.43 nM | COC(=O)c1cc2c(cc1C)/C(=C(/Nc1ccc(C(=O)NOC3CCN(C)CC3)cc1)c1ccccc1)C(=O)N2 [Example 30] | 96.1% | 87.7% | 26% |  |  |
|  |  | 6.58 nM | 7.72 nM | COC(=O)c1cc2c(cc1C)/C(=C(/Nc1ccc(C(=O)NOC3CCN(C)CC3)c(C)c1)c1ccccc1)C(=O)N2 [Example 31] | 111.7% | 97.3% | 95.7% |  |  |
|  |  | 15.8 nM | 13.4 nM | COC(=O)c1cc2c(cc1C)/C(=C(/Nc1ccc(C(=O)N(OC)C3CCN(C)CC3)c(C)c1)c1ccccc1)C(=O)N2 [Example 34] | 114.8% | 80% | 61.5% |  |  |
|  |  | 22.1 nM | 26.9 nM | COC(=O)c1cc2c(cc1C)/C(=C(/Nc1ccc(C(=O)N(OC)C3CCN(C)CC3)cc1)c1ccccc1)C(=O)N2 [Example 35] | 92.9% | 77.2% | 75.7% |  |  |
|  |  | 244 nM | 24.1 nM | COC(=O)c1ccc2c(c1)NC(=O)/C2=C(\Nc1ccc(C(=O)N2CCO2)cc1)c1ccccc1 [Example 37] | 95.2% | 98.9% | 106% |  |  |
|  |  | 5.39 nM | 33.8 nM | COC(=O)c1ccc2c(c1)NC(=O)/C2=C(\Nc1ccc(C(=O)NOCCN2CCN(CCO)CC2)cc1)c1ccccc1 [Example 39] | 89.9% | 90.1% | 90.8% |  |  |
|  |  | 103 nM | 73.9 nM | COC(=O)c1ccc2c(c1)NC(=O)/C2=C(\Nc1ccc(C(=O)NOCCN2[C@H](C)CCC[C@@H]2C)cc1)c1ccccc1 [Example 44] | 103% | 105.9% | 109.8% |  |  |
|  |  | 14.1 nM | 27.2 nM | COC(=O)c1ccc2c(c1)NC(=O)/C2=C(\Nc1ccc(C(=O)NOCCN(C)CCO)cc1)c1ccccc1 [Example 45] | 98.9% | 104.7% | 80.7% |  |  |
|  |  | 28.1 nM | 31.7 nM | COCCN1CCN(CCONC(=O)c2ccc(N/C(=C3\C(=O)Nc4cc(C(=O)OC)ccc43)c3ccccc3)cc2)CC1 [Example 46] | 120.7% | 109.5% | 86.3% |  |  |
|  |  | 10.2 nM | 39 nM | COC(=O)c1ccc2c(c1)NC(=O)/C2=C(\Nc1ccc(C(=O)NOCCN2CCC(N(C)C)CC2)cc1)c1ccccc1 [Example 47] | 112% | 102.4% | 93% |  |  |
|  |  | 20.3 nM | 43.8 nM | COC(=O)c1cc2c(cc1C)/C(=C(/Nc1ccc(C(=O)NOCCCN3CCCCC3)cc1)c1ccccc1)C(=O)N2 [Example 53] | 124.2% | 96.8% | 97.8% |  |  |
|  |  | 18.1 nM | 34.1 nM | COC(=O)c1cc2c(cc1C)/C(=C(/Nc1ccc(C(=O)NOCCN3CCC(O)CC3)cc1)c1ccccc1)C(=O)N2 [Example 54] | 101% | 99.8% | 92.9% |  |  |
|  |  | 15.7 nM | 4.74 nM | COC(=O)c1cc2c(cc1C)/C(=C(/Nc1ccc(C(=O)NOCCN3CCC(C#N)CC3)cc1)c1ccccc1)C(=O)N2 [Example 63] | 99% | 116.9% | 12.1% |  |  |

| SMILES | recovery at 5 hr, 10 μM (PAMPA permeability assay) | Papp at 5 h, 10 μM (PAMPA permeability assay) | Ki (PDGFRβ [1]; [3]) | IC50 (PDGFRβ [2]; [4]) | Cell viability at 100 nM (%) (MRC5 cells) | Cell viability at 300 nM (%) (MRC5 cells) | Cell viability at 1000 nM (%) (MRC5 cells) | Ki (PDGFRβ [1]) | IC50 (PDGFRβ [2]) |
| --- | --- | --- | --- | --- | --- | --- | --- | --- | --- |
| COC(=O)c1cc2c(cc1C)/C(=C(/Nc1ccc(S(=O)(=O)N(C)OCCN(C)CCO)cc1)c1ccccc1)C(=O)N2 [Example 10, (Z)-Methyl 3-(((4-(N-(2-((2-hydroxyethyl)(methyl)amino)ethoxy)-N-methylsulfamoyl)phenyl)amino)(phenyl)methylene)-5-methyl-2-oxoindoline-6-carboxylate] | 92.6% | 24.8 ×10⁻⁶ cm/s |  |  | 105.9% | 100.9% | 42% | 17.4 nM | 13.6 nM |
| COC(=O)c1cc2c(cc1C)/C(=C(/Nc1ccc(C(=O)N(C)OCCN3CC4CC(C3)N4)cc1)c1ccccc1)C(=O)N2 [Example 66] |  |  | 16 nM | 15.5 nM | 102.8% | 92.9% | 53.8% |  |  |
